Legend:
Parameters in all cases: recommended concentration 1 uM
[1] = target: T1, Hepatocyte nuclear factor 4-alpha (Homo sapiens) (UniProt P41235); assay: Selectivity interaction (Reporter gene assay) EUB0000184b HNF4A
T1 sequence (whole entry): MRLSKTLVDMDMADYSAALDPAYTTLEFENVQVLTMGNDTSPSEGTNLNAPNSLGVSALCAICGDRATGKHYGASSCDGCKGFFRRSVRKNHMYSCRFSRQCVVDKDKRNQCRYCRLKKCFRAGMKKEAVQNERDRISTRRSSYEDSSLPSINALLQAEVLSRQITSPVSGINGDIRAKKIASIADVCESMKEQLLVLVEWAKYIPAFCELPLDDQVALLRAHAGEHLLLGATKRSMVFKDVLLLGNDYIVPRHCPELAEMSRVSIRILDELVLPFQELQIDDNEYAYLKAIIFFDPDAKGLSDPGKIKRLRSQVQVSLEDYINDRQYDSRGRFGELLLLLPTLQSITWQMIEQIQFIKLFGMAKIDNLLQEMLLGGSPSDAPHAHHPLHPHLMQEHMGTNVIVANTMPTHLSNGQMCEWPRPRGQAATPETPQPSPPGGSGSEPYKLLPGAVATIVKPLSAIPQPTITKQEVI

[2] = target: T2, Nuclear receptor subfamily 2 group C member 1 (Homo sapiens) (UniProt P13056); assay: Selectivity interaction (Reporter gene assay) EUB0000184b NR2C1
T2 sequence (whole entry): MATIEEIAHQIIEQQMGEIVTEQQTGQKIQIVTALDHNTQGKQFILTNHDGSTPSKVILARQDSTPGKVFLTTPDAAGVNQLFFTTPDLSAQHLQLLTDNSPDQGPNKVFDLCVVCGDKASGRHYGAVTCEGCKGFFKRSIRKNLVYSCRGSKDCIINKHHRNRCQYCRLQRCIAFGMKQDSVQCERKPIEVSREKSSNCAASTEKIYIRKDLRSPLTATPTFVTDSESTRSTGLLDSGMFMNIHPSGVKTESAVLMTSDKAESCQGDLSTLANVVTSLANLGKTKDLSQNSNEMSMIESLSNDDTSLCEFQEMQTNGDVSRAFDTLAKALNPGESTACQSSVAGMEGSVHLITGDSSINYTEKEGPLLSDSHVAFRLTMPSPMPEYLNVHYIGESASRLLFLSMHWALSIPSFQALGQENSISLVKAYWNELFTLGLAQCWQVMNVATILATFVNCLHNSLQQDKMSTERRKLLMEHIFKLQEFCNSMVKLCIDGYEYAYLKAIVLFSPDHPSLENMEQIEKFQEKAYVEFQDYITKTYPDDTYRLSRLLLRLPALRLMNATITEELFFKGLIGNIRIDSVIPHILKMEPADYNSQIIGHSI

[3] = target: Nuclear receptor subfamily 2 group E member 1 (Homo sapiens) (UniProt Q9Y466); assay: Selectivity interaction (Reporter gene assay) EUB0000184b NR2E1
[4] = target: Nuclear receptor subfamily 4immunitygroup A member 1 (Homo sapiens) (UniProt P22736); assay: Selectivity interaction (Reporter gene assay) EUB0000184b NR4A1
[5] = target: Steroidogenic factor 1 (Homo sapiens) (UniProt Q13285); assay: Selectivity interaction (Reporter gene assay) EUB0000184b NR5A1
[6] = target: T3, Alpha trans-inducing protein (Human alphaherpesvirus 1) (UniProt A0A5J6DW59); assay: Selectivity interaction (Reporter gene assay) EUB0000184b UL48
[7] = target: T4, Retinoic acid receptor RXR-alpha (Homo sapiens) (UniProt P19793); assay: Selectivity interaction (Reporter gene assay) EUB0000184b RXRA
T4 sequence (whole entry): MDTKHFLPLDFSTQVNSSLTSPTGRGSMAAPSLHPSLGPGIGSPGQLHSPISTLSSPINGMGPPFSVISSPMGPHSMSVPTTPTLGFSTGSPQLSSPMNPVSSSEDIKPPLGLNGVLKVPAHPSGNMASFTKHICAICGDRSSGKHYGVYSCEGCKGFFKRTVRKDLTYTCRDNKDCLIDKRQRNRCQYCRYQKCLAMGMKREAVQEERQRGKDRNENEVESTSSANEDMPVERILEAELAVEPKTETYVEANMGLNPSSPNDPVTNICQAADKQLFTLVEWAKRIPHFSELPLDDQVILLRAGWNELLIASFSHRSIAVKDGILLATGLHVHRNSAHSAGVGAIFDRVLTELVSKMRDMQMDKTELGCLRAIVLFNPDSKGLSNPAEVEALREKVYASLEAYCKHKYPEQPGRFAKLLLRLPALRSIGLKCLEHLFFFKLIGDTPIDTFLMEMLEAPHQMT

[8] = target: Adenosine receptor A1 (Homo sapiens) (UniProt P30542); assay: Selectivity interaction (CEREP panel) EUB0000323b ADORA1; settings: at 10 µM
[9] = target: Bromodomain-containing protein 3 (Homo sapiens) (UniProt Q15059); assay: (§1) Selectivity interaction (Bromodomain panel) EUB0000323b BRD3
[10] = target: Bromodomain-containing protein 3 (Homo sapiens) (UniProt Q15059); assay: as §1; remark: listed apart in the source
[11] = target: Bromodomain-containing protein 4 (Homo sapiens, UniProt O60885); assay: Selectivity interaction (Bromodomain panel) EUB0000323b BRD4
[12] = target: Bromodomain-containing protein 7 (Homo sapiens) (UniProt Q9NPI1); assay: Selectivity interaction (Bromodomain panel) EUB0000323b BRD7
[13] = target: Transcription initiation factor TFIID subunit 1-like (Homo sapiens) (UniProt Q8IZX4); assay: Selectivity interaction (Bromodomain panel) EUB0000323b TAF1L
[14] = target: Transcription intermediary factor 1-alpha (Homo sapiens) (UniProt O15164); assay: (§2) Selectivity interaction (Bromodomain panel) EUB0000323b TRIM24
[15] = target: Transcription intermediary factor 1-alpha (Homo sapiens) (UniProt O15164); assay: as §2; remark: listed apart in the source
[16] = target: T1, Hepatocyte nuclear factor 4-alpha (Homo sapiens); assay: Selectivity interaction (Reporter gene assay) EUB0000188b HNF4A
[17] = target: T2, Nuclear receptor subfamily 2 group C member 1 (Homo sapiens); assay: Selectivity interaction (Reporter gene assay) EUB0000188b NR2C1
[18] = target: Nuclear receptor subfamily 2 group E member 1 (Homo sapiens) (UniProt Q9Y466); assay: Selectivity interaction (Reporter gene assay) EUB0000188b NR2E1
[19] = target: Nuclear receptor subfamily 4immunitygroup A member 1 (Homo sapiens) (UniProt P22736); assay: Selectivity interaction (Reporter gene assay) EUB0000188b NR4A1
[20] = target: Steroidogenic factor 1 (Homo sapiens) (UniProt Q13285); assay: Selectivity interaction (Reporter gene assay) EUB0000188b NR5A1
[21] = target: T3, Alpha trans-inducing protein (Human alphaherpesvirus 1); assay: Selectivity interaction (Reporter gene assay) EUB0000188b UL48
[22] = target: T4, Retinoic acid receptor RXR-alpha (Homo sapiens); assay: Selectivity interaction (Reporter gene assay) EUB0000188b RXRA; settings: reference bexarotene 1 uM, Selectivity number of off-targets 0.0, Selectivity number of targets 1.0, Source Knowledge inhouse
[23] = target: Alpha-2B adrenergic receptor (Homo sapiens) (UniProt P18089); assay: Selectivity interaction (Custom Panel of enzymes and receptors (Eurofins)) EUB0000234b ADRA2B; settings: at 10 µM
[24] = target: Histamine H3 receptor (Homo sapiens) (UniProt Q9Y5N1); assay: Selectivity interaction (Custom Panel of enzymes and receptors (Eurofins)) EUB0000234b HRH3; settings: at 10 µM
[25] = target: Muscarinic acetylcholine receptor M2 (Homo sapiens) (UniProt P08172); assay: Selectivity interaction (Custom Panel of enzymes and receptors (Eurofins)) EUB0000234b CHRM2; settings: at 10 µM
[26] = target: Mu-type opioid receptor (Homo sapiens, UniProt P35372); assay: Selectivity interaction (Custom Panel of enzymes and receptors (Eurofins)) EUB0000234b OPRM1; settings: at 10 µM
[27] = target: T1, Hepatocyte nuclear factor 4-alpha (Homo sapiens); assay: Selectivity interaction (Reporter gene assay) EUB0000081c HNF4A
[28] = target: T2, Nuclear receptor subfamily 2 group C member 1 (Homo sapiens); assay: Selectivity interaction (Reporter gene assay) EUB0000081c NR2C1
[29] = target: Nuclear receptor subfamily 2 group E member 1 (Homo sapiens) (UniProt Q9Y466); assay: Selectivity interaction (Reporter gene assay) EUB0000081c NR2E1
[30] = target: Nuclear receptor subfamily 4immunitygroup A member 1 (Homo sapiens) (UniProt P22736); assay: Selectivity interaction (Reporter gene assay) EUB0000081c NR4A1
[31] = target: Steroidogenic factor 1 (Homo sapiens) (UniProt Q13285); assay: Selectivity interaction (Reporter gene assay) EUB0000081c NR5A1
[32] = target: T3, Alpha trans-inducing protein (Human alphaherpesvirus 1); assay: Selectivity interaction (Reporter gene assay) EUB0000081c UL48
[33] = target: T4, Retinoic acid receptor RXR-alpha (Homo sapiens); assay: Selectivity interaction (Reporter gene assay) EUB0000081c RXRA

Sequence of Steroidogenic factor 1 (Homo sapiens) (Q13285 whole entry): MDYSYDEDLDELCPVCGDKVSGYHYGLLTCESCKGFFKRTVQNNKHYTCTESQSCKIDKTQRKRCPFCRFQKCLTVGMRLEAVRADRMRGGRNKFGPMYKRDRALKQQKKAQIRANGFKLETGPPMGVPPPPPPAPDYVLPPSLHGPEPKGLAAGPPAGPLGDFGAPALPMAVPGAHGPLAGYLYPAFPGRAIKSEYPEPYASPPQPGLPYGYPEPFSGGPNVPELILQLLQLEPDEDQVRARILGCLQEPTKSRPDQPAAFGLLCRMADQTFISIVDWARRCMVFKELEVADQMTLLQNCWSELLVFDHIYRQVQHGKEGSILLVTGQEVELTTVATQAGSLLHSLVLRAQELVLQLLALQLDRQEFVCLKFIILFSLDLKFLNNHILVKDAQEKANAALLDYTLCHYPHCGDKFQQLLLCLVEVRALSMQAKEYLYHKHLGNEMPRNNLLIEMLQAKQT
Sequence of Nuclear receptor subfamily 2 group E member 1 (Homo sapiens) (Q9Y466 whole entry): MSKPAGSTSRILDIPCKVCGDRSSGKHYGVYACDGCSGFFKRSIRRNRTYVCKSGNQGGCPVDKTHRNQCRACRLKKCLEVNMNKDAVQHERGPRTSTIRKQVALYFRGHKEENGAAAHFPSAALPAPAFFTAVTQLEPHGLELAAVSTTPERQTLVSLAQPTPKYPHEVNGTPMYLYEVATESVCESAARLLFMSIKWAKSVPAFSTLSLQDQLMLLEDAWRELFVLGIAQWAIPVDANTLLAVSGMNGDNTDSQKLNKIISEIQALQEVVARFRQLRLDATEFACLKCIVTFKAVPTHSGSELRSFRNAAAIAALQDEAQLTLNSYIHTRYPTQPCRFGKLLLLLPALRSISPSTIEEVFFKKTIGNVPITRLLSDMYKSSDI
Sequence of Nuclear receptor subfamily 4immunitygroup A member 1 (Homo sapiens) (P22736 whole entry): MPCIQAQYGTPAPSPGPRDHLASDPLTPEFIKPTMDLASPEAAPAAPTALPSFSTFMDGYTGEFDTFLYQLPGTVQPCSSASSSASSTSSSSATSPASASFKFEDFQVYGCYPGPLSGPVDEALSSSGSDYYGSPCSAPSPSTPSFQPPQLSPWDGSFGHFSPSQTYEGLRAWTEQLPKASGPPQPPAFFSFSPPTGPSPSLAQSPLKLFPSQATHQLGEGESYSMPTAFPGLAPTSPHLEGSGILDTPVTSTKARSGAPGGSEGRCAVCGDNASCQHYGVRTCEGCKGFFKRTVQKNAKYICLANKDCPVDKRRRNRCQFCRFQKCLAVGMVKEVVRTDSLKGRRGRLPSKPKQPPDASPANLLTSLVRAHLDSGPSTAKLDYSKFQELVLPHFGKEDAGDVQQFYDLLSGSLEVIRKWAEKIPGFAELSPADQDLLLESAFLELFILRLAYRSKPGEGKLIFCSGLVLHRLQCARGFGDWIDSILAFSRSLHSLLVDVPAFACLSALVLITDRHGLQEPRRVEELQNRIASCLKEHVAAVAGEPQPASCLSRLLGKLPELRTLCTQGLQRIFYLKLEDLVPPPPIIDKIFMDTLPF
T3 sequence (A0A5J6DW59 as listed by the source): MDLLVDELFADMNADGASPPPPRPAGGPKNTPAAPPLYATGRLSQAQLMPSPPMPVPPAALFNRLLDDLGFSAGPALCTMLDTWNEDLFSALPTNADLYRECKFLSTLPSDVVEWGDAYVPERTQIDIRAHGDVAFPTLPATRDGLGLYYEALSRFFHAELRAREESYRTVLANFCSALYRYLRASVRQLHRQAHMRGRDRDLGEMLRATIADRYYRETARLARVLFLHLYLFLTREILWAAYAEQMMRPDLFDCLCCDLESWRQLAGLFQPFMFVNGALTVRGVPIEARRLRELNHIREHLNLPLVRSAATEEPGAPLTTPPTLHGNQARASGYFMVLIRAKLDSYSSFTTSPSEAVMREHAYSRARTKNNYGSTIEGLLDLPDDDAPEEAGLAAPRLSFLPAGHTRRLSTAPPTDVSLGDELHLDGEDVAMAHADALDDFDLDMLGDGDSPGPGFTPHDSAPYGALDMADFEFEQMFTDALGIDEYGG
Sequence of Transcription intermediary factor 1-alpha (Homo sapiens) (O15164 whole entry): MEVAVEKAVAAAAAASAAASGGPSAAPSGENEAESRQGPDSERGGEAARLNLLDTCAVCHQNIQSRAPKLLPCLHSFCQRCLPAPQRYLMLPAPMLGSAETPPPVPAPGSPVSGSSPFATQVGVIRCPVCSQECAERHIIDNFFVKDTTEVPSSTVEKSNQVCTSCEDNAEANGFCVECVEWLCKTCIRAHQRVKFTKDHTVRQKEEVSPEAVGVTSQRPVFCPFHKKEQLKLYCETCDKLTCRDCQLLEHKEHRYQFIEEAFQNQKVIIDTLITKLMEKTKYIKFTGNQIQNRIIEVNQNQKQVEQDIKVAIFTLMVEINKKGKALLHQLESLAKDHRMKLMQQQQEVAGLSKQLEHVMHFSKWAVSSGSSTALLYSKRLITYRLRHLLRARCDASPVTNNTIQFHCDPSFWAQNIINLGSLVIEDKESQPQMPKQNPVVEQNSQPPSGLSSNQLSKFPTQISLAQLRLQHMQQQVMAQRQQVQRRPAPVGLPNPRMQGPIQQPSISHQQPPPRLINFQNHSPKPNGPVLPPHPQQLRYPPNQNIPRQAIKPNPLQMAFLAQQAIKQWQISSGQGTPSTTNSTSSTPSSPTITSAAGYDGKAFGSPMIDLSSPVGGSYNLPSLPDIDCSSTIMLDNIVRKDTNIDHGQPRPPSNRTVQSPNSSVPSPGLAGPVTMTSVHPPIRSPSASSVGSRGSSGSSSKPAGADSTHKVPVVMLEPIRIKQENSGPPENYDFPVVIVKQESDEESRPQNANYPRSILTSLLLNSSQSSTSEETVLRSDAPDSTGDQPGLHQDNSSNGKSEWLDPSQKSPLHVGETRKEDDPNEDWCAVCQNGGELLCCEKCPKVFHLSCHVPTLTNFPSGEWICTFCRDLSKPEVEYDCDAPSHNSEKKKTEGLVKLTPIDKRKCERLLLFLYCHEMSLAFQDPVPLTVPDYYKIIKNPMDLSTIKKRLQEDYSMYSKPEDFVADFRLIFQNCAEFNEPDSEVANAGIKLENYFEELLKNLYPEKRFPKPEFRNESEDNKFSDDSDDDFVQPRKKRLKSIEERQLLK
Sequence of Bromodomain-containing protein 3 (Homo sapiens) (Q15059 2-726 limits assumed): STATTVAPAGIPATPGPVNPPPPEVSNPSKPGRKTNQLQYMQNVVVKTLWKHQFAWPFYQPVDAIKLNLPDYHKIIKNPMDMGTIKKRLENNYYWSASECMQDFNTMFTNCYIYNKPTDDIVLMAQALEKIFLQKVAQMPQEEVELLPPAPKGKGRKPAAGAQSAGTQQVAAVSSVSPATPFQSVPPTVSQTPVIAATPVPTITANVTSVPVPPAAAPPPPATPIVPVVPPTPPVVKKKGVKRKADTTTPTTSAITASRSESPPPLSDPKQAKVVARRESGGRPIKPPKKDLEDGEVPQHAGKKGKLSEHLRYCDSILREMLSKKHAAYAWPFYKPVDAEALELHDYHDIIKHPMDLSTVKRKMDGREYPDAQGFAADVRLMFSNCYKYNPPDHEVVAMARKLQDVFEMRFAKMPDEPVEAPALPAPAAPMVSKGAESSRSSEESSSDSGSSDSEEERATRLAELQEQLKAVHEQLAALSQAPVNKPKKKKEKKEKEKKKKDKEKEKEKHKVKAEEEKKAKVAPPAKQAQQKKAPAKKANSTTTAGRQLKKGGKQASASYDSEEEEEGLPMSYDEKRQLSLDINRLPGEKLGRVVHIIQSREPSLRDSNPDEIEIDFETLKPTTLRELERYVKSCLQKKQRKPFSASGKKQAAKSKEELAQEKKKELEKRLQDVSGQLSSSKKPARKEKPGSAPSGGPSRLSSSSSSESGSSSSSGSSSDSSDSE
Sequence of Bromodomain-containing protein 7 (Homo sapiens) (Q9NPI1 whole entry): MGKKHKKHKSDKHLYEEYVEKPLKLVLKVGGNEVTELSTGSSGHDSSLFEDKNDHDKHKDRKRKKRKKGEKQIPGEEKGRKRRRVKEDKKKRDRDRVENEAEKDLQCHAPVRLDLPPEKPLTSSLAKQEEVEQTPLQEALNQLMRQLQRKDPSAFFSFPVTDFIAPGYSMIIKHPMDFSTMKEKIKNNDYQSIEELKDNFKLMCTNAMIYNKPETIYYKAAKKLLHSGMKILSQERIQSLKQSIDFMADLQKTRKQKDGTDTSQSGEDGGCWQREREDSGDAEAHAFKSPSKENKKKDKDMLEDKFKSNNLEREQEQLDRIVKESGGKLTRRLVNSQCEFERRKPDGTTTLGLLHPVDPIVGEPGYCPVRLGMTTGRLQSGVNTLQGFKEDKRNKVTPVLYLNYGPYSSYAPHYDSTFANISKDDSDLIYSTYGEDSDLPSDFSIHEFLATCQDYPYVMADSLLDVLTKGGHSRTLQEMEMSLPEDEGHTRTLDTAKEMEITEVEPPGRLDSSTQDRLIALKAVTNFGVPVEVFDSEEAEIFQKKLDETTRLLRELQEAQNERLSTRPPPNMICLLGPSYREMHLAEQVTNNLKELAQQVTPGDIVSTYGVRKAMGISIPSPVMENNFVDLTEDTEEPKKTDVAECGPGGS
Sequence of Histamine H3 receptor (Homo sapiens) (Q9Y5N1 whole entry): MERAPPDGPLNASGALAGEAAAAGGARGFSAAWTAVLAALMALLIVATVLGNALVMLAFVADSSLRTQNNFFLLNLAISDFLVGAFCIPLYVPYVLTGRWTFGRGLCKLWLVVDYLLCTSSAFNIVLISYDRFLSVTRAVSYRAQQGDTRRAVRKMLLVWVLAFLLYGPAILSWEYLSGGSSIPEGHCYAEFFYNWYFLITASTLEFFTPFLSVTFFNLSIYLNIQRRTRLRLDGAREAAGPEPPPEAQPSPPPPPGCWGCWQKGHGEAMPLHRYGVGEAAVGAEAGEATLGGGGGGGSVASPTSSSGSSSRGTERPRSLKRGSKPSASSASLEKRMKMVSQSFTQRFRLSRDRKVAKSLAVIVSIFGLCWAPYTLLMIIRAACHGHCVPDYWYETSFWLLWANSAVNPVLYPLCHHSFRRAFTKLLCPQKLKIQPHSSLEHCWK

## CC(C)c1onc(-c2c(Cl)cccc2Cl)c1COc1ccc(/C=C/c2cccc(C(=O)O)c2)c(Cl)c1
[1]
  Fold activation: 1.24
[2]
  Fold activation: 1.33
[3]
  Fold activation: 1.12
[4]
  Fold activation: 1.41
[5]
  Remaining activity: 0.927
[6]
  P-value: 3.89e-13
[7]
  Relative activation: 0.803%

## COc1cc2c(cc1NS(=O)(=O)c1ccc(Br)cc1C)n(C)c(=O)n2C
[8]
  Inhibition of control: 82%
[9]
  ΔTm: 1.6 °C
[10]
  ΔTm: 1.4 °C
[11]
  ΔTm: 2 °C
[12]
  ΔTm: 1.2 °C
[13]
  ΔTm: 1.4 °C
[14]
  ΔTm: 1.6 °C
[15]
  ΔTm: 1.8 °C

## CCCc1c(OCCCOc2ccc(OCC(=O)O)cc2)ccc(C(C)=O)c1O
[16]
  Fold activation: 1.1
[17]
  Fold activation: 1.36
[18]
  Fold activation: 1.34
[19]
  Fold activation: 1.22
[20]
  Remaining activity: 0.985
[21]
  P-value: 1.09e-07
[22]
  Relative activation: 1.18%

## COc1cc(OC)cc(-c2noc(N3CCN(C)C4(CCN(c5ccnc(C)c5)CC4)C3)n2)c1
[23]
  Inhibition of control: > 50%
[24]
  Inhibition of control: > 50%
[25]
  Inhibition of control: > 50%
[26]
  Inhibition of control: > 50%

## CC[C@H]1[C@@H](O)[C@@H]2[C@H](CC[C@]3(C)[C@@H]([C@H](C)CCC(=O)O)CC[C@@H]23)[C@@]2(C)CC[C@@H](O)C[C@@H]12
[27]
  Fold activation: 1.14
[28]
  Fold activation: 1.19
[29]
  Fold activation: 1.13
[30]
  Fold activation: 1.23
[31]
  Fold activation: 1.04
[32]
  P-value: 0.000147
[33]
  Relative activation: 0.53%

From ChEMBL document CHEMBL5715260, “Selectivity Literature for EUbOPEN Chemogenomic Library” (2024)
